Activity calls are given as the source filed them. The rule behind the calls is not given here.
Tested on: CCRIS mutagenicity, Ames/micronucleus/aberration tests
Test: CCRIS mutagenicity studies
[1] = Test System: AMES SALMONELLA TYPHIMURIUM, Strain/Indicator: TA98, Metabolic Activation: NONE, Method: STANDARD PLATE
[2] = Test System: AMES SALMONELLA TYPHIMURIUM, Strain/Indicator: TA98, Metabolic Activation: RAT, LIVER, S-9, AROCLOR 1254, Method: STANDARD PLATE
[3] = Test System: AMES SALMONELLA TYPHIMURIUM, Strain/Indicator: TA102, Metabolic Activation: NONE, Method: STANDARD PLATE
[4] = Test System: AMES SALMONELLA TYPHIMURIUM, Strain/Indicator: TA104, Metabolic Activation: NONE, Method: STANDARD PLATE
[5] = Test System: AMES SALMONELLA TYPHIMURIUM, Strain/Indicator: TA98, Metabolic Activation: NONE, Method: PREINCUBATION
[6] = Test System: AMES SALMONELLA TYPHIMURIUM, Strain/Indicator: TA100, Metabolic Activation: NONE, Method: PREINCUBATION
[7] = Test System: AMES SALMONELLA TYPHIMURIUM, Strain/Indicator: TA100, Metabolic Activation: NONE, Method: STANDARD PLATE

For CCN(CCC#N)c1ccc(N=Nc2c(Cl)cc([N+](=O)[O-])cc2Cl)cc1, the mutagenic call [1] was “active; positive”, the mutagenic call [2] was “active; positive” and the mutagenic call (Test System: AMES SALMONELLA TYPHIMURIUM, Strain/Indicator: YG1041, Metabolic Activation: NONE, Method: STANDARD PLATE) was “active; positive”. The mutagenic call (Test System: AMES SALMONELLA TYPHIMURIUM, Strain/Indicator: YG1041, Metabolic Activation: RAT, LIVER, S-9, AROCLOR 1254, Method: STANDARD PLATE) was “active; positive”.

CN(C)Nc1nc(-c2ccc([N+](=O)[O-])o2)cs1 was tested, and the mutagenic call (Test System: AMES SALMONELLA TYPHIMURIUM, Strain/Indicator: TA100, Metabolic Activation: RAT, LIVER, S-9, KC500 OR PHENOBARBITAL, Method: LIQUID SUSPENSION) was “active; positive” and the mutagenic call (Test System: E. COLI WP2, Strain/Indicator: WP2, Metabolic Activation: NONE, Method: SPOT) was “active; positive”.

For COC(=O)c1cc2ccc3cccnc3c2[nH]1, the mutagenic call [1] was “inactive; negative” and the mutagenic call (Test System: E. COLI, Strain/Indicator: WP2 TM9, Metabolic Activation: NONE, Method: STANDARD PLATE) was “inactive; negative”.

For O=C(O)[C@@H]1CSCN1, the mutagenic call [3] was “inactive; negative”, the mutagenic call (Test System: AMES SALMONELLA TYPHIMURIUM, Strain/Indicator: TA102, Metabolic Activation: RAT, LIVER, S-9, PHENOBARBITAL, Method: STANDARD PLATE) was “inactive; negative” and the mutagenic call [4] was “inactive; negative”. The mutagenic call (Test System: AMES SALMONELLA TYPHIMURIUM, Strain/Indicator: TA104, Metabolic Activation: RAT, LIVER, S-9, PHENOBARBITAL, Method: STANDARD PLATE) was “inactive; negative”.

For Nc1ccc(N)c(S(=O)(=O)O)c1, the mutagenic call [5] was “inactive; negative”, the mutagenic call (Test System: AMES SALMONELLA TYPHIMURIUM, Strain/Indicator: TA98, Metabolic Activation: RAT, LIVER, S-9, AROCLOR 1254, Method: PREINCUBATION) was “inactive; negative” and the mutagenic call [6] was “inactive; negative”. For the same compound, the mutagenic call (Test System: AMES SALMONELLA TYPHIMURIUM, Strain/Indicator: TA100, Metabolic Activation: RAT, LIVER, S-9, AROCLOR 1254, Method: PREINCUBATION) was “inactive; negative” and the mutagenic call (Test System: UDS RODENT HEPATOCYTES, Strain/Indicator: THY INCORP (NON-S-PHASE), Metabolic Activation: NONE, Method: AUTORADIOGRAPHY) was “active; positive”.

In the case of O=[N+]([O-])c1ccc(CO)c([N+](=O)[O-])c1, the mutagenic call [5] is reported as “active; positive”, the mutagenic call (Test System: AMES SALMONELLA TYPHIMURIUM, Strain/Indicator: TA98, Metabolic Activation: RAT, LIVER, S-9, AROCLOR, Method: PREINCUBATION) is reported as “active; positive” and the mutagenic call (Test System: AMES SALMONELLA TYPHIMURIUM, Strain/Indicator: TA98, Metabolic Activation: RAT, LIVER, S-9, PHENOBARBITAL AND 5,6-BENZOFLAVONE, Method: PREINCUBATION) is reported as “active; positive”. For the same compound, the mutagenic call [6] was “active; positive” and the mutagenic call (Test System: AMES SALMONELLA TYPHIMURIUM, Strain/Indicator: TA100, Metabolic Activation: RAT, LIVER, S-9, PHENOBARBITAL AND 5,6-BENZOFLAVONE, Method: PREINCUBATION) was “active; positive”.

In the case of O=[N+]([O-])c1ccc(Sc2ccccc2)cc1, the mutagenic call (Test System: AMES SALMONELLA TYPHIMURIUM, Strain/Indicator: TA98(1,8-DNP6), Metabolic Activation: NONE, Method: STANDARD PLATE) is reported as “active; positive”, the mutagenic call (Test System: AMES SALMONELLA TYPHIMURIUM, Strain/Indicator: TA98(NR), Metabolic Activation: NONE, Method: STANDARD PLATE) is reported as “inactive; negative” and the mutagenic call [1] is reported as “active; positive”. For the same compound, the mutagenic call [2] was “active; positive”.

In the case of Cn1c(N)nc2nc3ncccc3cc21, the mutagenic call (Test System: AMES SALMONELLA TYPHIMURIUM, Strain/Indicator: TA98, Metabolic Activation: RAT, LIVER, S-9, AROCLOR 1254A, Method: STANDARD PLATE) is reported as “inactive; negative” and the mutagenic call (Test System: AMES SALMONELLA TYPHIMURIUM, Strain/Indicator: YG1024, Metabolic Activation: RAT, LIVER, S-9, AROCLOR 1254A, Method: STANDARD PLATE) is reported as “active; positive”.

In the case of Cc1cc(C)c(S(=O)(=O)O)cc1N=Nc1cc(S(=O)(=O)O)c2ccccc2c1O, the mutagenic call (Test System: AMES SALMONELLA TYPHIMURIUM, Strain/Indicator: TA98, Metabolic Activation: HAMSTER, LIVER, S-9, AROCLOR 1254, Method: STANDARD PLATE) is reported as “inactive; negative”, the mutagenic call [1] is reported as “inactive; negative” and the mutagenic call (Test System: AMES SALMONELLA TYPHIMURIUM, Strain/Indicator: TA98, Metabolic Activation: RAT LIVER S-9, AROCLOR 1254, Method: STANDARD PLATE) is reported as “inactive; negative”. For the same compound, the mutagenic call [2] was “inactive; negative”, the mutagenic call (Test System: AMES SALMONELLA TYPHIMURIUM, Strain/Indicator: TA100, Metabolic Activation: HAMSTER, LIVER, S-9, AROCLOR 1254, Method: STANDARD PLATE) was “inactive; negative” and the mutagenic call [7] was “inactive; negative”. For the same compound, the mutagenic call (Test System: AMES SALMONELLA TYPHIMURIUM, Strain/Indicator: TA100, Metabolic Activation: RAT LIVER S-9, AROCLOR 1254, Method: STANDARD PLATE) was “inactive; negative”, the mutagenic call (Test System: AMES SALMONELLA TYPHIMURIUM, Strain/Indicator: TA100, Metabolic Activation: RAT, LIVER, S-9, AROCLOR 1254, Method: STANDARD PLATE) was “inactive; negative” and the mutagenic call (Test System: AMES SALMONELLA TYPHIMURIUM, Strain/Indicator: TA1535, Metabolic Activation: HAMSTER, LIVER, S-9, AROCLOR 1254, Method: STANDARD PLATE) was “inactive; negative”. The mutagenic call (Test System: AMES SALMONELLA TYPHIMURIUM, Strain/Indicator: TA1535, Metabolic Activation: NONE, Method: STANDARD PLATE) was “inactive; negative”, the mutagenic call (Test System: AMES SALMONELLA TYPHIMURIUM, Strain/Indicator: TA1535, Metabolic Activation: RAT, LIVER, S-9, AROCLOR 1254, Method: STANDARD PLATE) was “inactive; negative” and the mutagenic call (Test System: AMES SALMONELLA TYPHIMURIUM, Strain/Indicator: TA1537, Metabolic Activation: HAMSTER, LIVER, S-9, AROCLOR 1254, Method: STANDARD PLATE) was “inactive; negative”. The mutagenic call (Test System: AMES SALMONELLA TYPHIMURIUM, Strain/Indicator: TA1537, Metabolic Activation: NONE, Method: STANDARD PLATE) was “inactive; negative”, the mutagenic call (Test System: AMES SALMONELLA TYPHIMURIUM, Strain/Indicator: TA1537, Metabolic Activation: RAT, LIVER, S-9, AROCLOR 1254, Method: STANDARD PLATE) was “inactive; negative” and the mutagenic call (Test System: AMES SALMONELLA TYPHIMURIUM, Strain/Indicator: TA1538, Metabolic Activation: HAMSTER, LIVER, S-9, AROCLOR 1254 (2.5-20%), Method: PREINCUBATION) was “inactive; negative”. For the same compound, the mutagenic call (Test System: AMES SALMONELLA TYPHIMURIUM, Strain/Indicator: TA1538, Metabolic Activation: HAMSTER, LIVER, S-9, AROCLOR 1254, Method: STANDARD PLATE) was “inactive; negative”, the mutagenic call (Test System: AMES SALMONELLA TYPHIMURIUM, Strain/Indicator: TA1538, Metabolic Activation: NONE, Method: STANDARD PLATE) was “inactive; negative” and the mutagenic call (Test System: AMES SALMONELLA TYPHIMURIUM, Strain/Indicator: TA1538, Metabolic Activation: RAT, LIVER, S-9, AROCLOR 1254, Method: STANDARD PLATE) was “inactive; negative”. The mutagenic call (Test System: MOUSE LYMPHOMA, Strain/Indicator: L5178Y (TK+/TK-), Metabolic Activation: NONE, Method: SUSPENSION/PLATE) was “inactive; negative. reevaluation of results: negative” and the mutagenic call (Test System: MOUSE LYMPHOMA, Strain/Indicator: L5178Y (TK+/TK-), Metabolic Activation: RAT, LIVER, S-9, AROCLOR 1254, Method: SUSPENSION/PLATE) was “inactive; negative. reevaluation of results: negative”.

With CC[C@@]1(O)C[C@H](O[C@H]2C[C@H](N(C)C)[C@H](O)[C@H](C)O2)c2c(cc3c(c2O)C(=O)c2c(O)ccc(O)c2C3=O)[C@H]1C(=O)OC the mutagenic call [3] was “active; positive”, the mutagenic call [4] was “active; positive” and the mutagenic call (Test System: AMES SALMONELLA TYPHIMURIUM, Strain/Indicator: TA1537, Metabolic Activation: NONE) was “active; positive”. For the same compound, the mutagenic call (Test System: AMES SALMONELLA TYPHIMURIUM, Strain/Indicator: TA1537, Metabolic Activation: RAT, LIVER, S-9, AROCLOR 1254) was “active; positive”.

For COc1cc(O)c2c(=O)c3c(OC)cc4c(c3oc2c1OC)[C@@H]1C=CO[C@@H]1O4, the mutagenic call (Test System: AMES SALMONELLA TYPHIMURIUM, Strain/Indicator: TA98, Metabolic Activation: RAT, LIVER, S-9, PHENOBARBITAL, Method: STANDARD PLATE) was “inactive; negative” and the mutagenic call (Test System: AMES SALMONELLA TYPHIMURIUM, Strain/Indicator: TA100, Metabolic Activation: RAT, LIVER, S-9, PHENOBARBITAL, Method: STANDARD PLATE) was “active; positive”.

O=[N+]([O-])c1c2ccccc2cc2c3c(ccc12)[C@@H](O)[C@H](O)C=C3 was tested, and the mutagenic call [1] was “active; positive” and the mutagenic call [7] was “inactive; negative”.

For C=C(Br)C(=O)O, the mutagenic call [6] was “inactive; negative” and the mutagenic call (Test System: AMES SALMONELLA TYPHIMURIUM, Strain/Indicator: TA100, Metabolic Activation: RAT, LIVER, MICROSOMES, Method: PREINCUBATION) was “inactive; negative”.

OCc1ccc2c(c1)-c1cccc3cccc-2c13 was tested, and the mutagenic call [1] was “inactive; negative” and the mutagenic call [7] was “active; positive”.

Reference: PubChem BioAssay AID1259407 (Chemical Carcinogenesis Research Information System (CCRIS), 2018)
